Test results published in patent US4647685A, “2-alkoxy-1-((2-trialkylaminoethoxy)phosphinyloxy)-alkenes and alkynes, hydroxy inner salts” (Eli Lilly and Company, priority 1985, dated 1987).
Counter-ions that a name gives are not always drawn.

What was measured:
CCRF-CEM cell line = experiment: Inhibition of growth of human leukemic cells (CCRF-CEM Cytotoxicity Screen); assay type: cell-based; conditions: in vitro, read-out: IC50 (concentration giving 50% growth inhibition)
[1] = tested on: X-5563 (multiple myeloma); experiment: Activity against X-5563 (multiple myeloma) tumor maintained in C3H mice; assay type: in vivo; conditions: I.P. daily for 10 days, tumors measured days 10 to 12
Procedure: (§1) The following protocol was employed. The tumor was removed from passage animals and minced into 1 to 3 mm square fragments using sterile techniques. Tumor pieces were checked for sterility using both Antibiotic Medium 1 and Brain Heart Infusion (Difco; Detroit, MI). Recipient mice were shaved and tumor pieces were implanted subcutaneously in the axillary region by trocar. Drug therapy on the appropriate schedule was initiated on the day after tumor implant. The compound was dissolved in saline for all experiments. All animals were weighed at the beginning and end of drug treatment. Food and water were provided ad libitum. Each test group contains 5 animals. On days 10 to 12, two dimensional measurements (width and length) of all tumors were taken using vernier calipers. Tumor weights were calculated from these measurements using the following formula:
Tumor Weight (mg)=Tumor Length (mm) X Tumor Width (mm)^2 /2
(§2) For all data, the tumor weight was rounded to the nearest tenth of a gram for analysis. No group is included in the analysis for therapeutic activity in which deaths attributable to drug toxicity exceeded 30 percent of the treated group.
(§3) In Table 2 which follows, column 1 gives the name of the compound; column 2, the dose level; column 3, the percent inhibition of the tumor; and column 4, the toxic deaths. Drug and control doasges were administered I.P. daily for 10 days.

[2] = Toxic deaths in the X-5563 (multiple myeloma) tumor test; assay type: in vivo, C3H mice; conditions: I.P. daily for 10 days
Procedure: as §1, with “formula: […]” for “formula:”
as §2, §3

| Structure (SMILES) | IC50 (CCRF-CEM cell line) | Percent Inhibition of Tumor ([1]; 50 mg/kg) | Toxic Deaths ([2]; 50 mg/kg) | Percent Inhibition of Tumor ([1]; 70 mg/kg) | Toxic Deaths ([2]; 70 mg/kg) |
| --- | --- | --- | --- | --- | --- |
| CCCCCCCC/C=C\CCCCCCCC(COP(=O)([O-])OCC[N+](C)(C)C)OCC (racemic) [(Z)-(±)-2-ethoxy-1-[(2-trimethylaminoethoxy)phosphinyloxy]-10-nonadecene, hydroxy inner salt] | 1.6 µg/mL | 47% | 1/10 | – | – |
| CCCCC/C=C\C/C=C\CCCCCCCC(COP(=O)([O-])OCC[N+](C)(C)C)OCC (racemic) [(Z,Z)-(±)-2-Ethoxy-1-[(2-trimethylaminoethoxy)phosphinyloxy]-10,13 nonadecadiene, hydroxy inner salt] | 6 µg/mL | – | – | 31% | 2/10 |
| CCCCC/C=C\C/C=C\CCCCCCCC(COP(=O)([O-])OCC[N+](C)(C)C)OC (racemic) [(Z,Z)-(±)-2-Methoxy-1-[(2-trimethylaminoethoxy)phosphinyloxy]-10,13-nonadecadiene, hydroxy inner salt] | 4.2 µg/mL | – | – | – | – |
